{"source": "patent US20160022757A1", "about": "“THERAPEUTIC METHODS FOR TREATING SOLID TUMORS AND RELATED DIAGNOSTIC METHODS” (ICAHN SCHOOL OF MEDICINE AT MOUNT SINAI, priority 2013, published 2016)", "key": {"[1]": {"test_system": "ras^G12V p53^RNAi apc^RNAi animals", "assay": "Dissemination after compound feeding, ras^G12V p53^RNAi apc^RNAi triple", "type": "in vivo, Drosophila", "conditions": "single agent", "protocol": "(§1) Targeted expression in the adult hindgut: Multigenic combinations were targeted to the adult hindgut using the hindgut specific gal4 line byn-gal4 (V. Hartenstein) and tub-gal80^ts (Bloomington). Crosses were kept at 16° C. to keep the transgenes silent during development and adult females were transferred to 29° C. to induce transgene expression. In addition, GFP and Dcr2 (Dicer 2) were co-expressed to mark the hindgut cells and to facilitate RNAi-mediated knock-down, respectively.\n(§2) Compound Feeding: Compound treated food was made by diluting compound stocks (made in 100% DMSO) in semi-defined Drosophila medium to achieve a final concentration of 0.5% DMSO (empirically determined as the non-toxic DMSO dose in semi-defined Drosophila medium). Adult flies were kept on compound treated medium in standard Drosophila vials for 7 days (30 flies/vial, 1 ml food/vial) and provided with fresh compound food every other day. […]\n(§3) Imaging and Scoring: Fluorescence images were taken using a Leica TCS SPE confocal microscope and processed using the Leica LAS-AF software. […] Distant migration was imaged and scored using a Leica MZ16F dissecting scope with a GFP filter under 10× magnification.\n(§4) Statistical Analysis: Statistical significance for the distant migration assay was calculated using Fisher's exact test as this test allows the analysis of contingency tables where sample sizes are relatively small. […]"}, "[2]": {"test_system": "PI3K and TORC1 activity (p-4EBP)", "assay": "Western blot analysis of PI3K pathway activity in hindguts after compound treatment", "type": "in vivo, Drosophila", "conditions": "four-hit hindguts; for p-4EBP levels: seven days", "from_the_text": "Western Blot Analysis: Primary antibodies used were rabbit anti-Drosophila phospho-AKT (S505) (1:1000, Cell Signaling), rabbit anti-pan-AKT (1:1000, Cell Signaling), rabbit anti-phospho-4EBP (T37/46) (1:1000, Cell Signaling), rabbit anti-human phospho-AKT (Ser473) (1:1000, Cell Signaling), mouse anti-α-actin (1:1000, Cell Signaling) and mouse anti-Syntaxin (1:1000, DSHB). HRP-conjugated anti-mouse and anti-rabbit antibodies were used as secondary antibodies (1:5000, Cell Signaling). For signal detection, Immobilon Chemiluminescent HRP Substrate (Millipore) was used.\n(§5) Compound Feeding: Compound treated food was made by diluting compound stocks (made in 100% DMSO) in semi-defined Drosophila medium to achieve a final concentration of 0.5% DMSO (empirically determined as the non-toxic DMSO dose in semi-defined Drosophila medium). Adult flies were kept on compound treated medium in standard Drosophila vials for 7 days (30 flies/vial, 1 ml food/vial) and provided with fresh compound food every other day.\nWestern Blot Analysis: Tissue lysates for western analysis were made by grinding 10-20 hindguts in lysis buffer (50 mM Tris-HCl, 150 mM NaCl, 1 mM EDTA, 1% NP-40) supplemented with protease and phosphatase inhibitor cocktails (Sigma). Lysates were boiled for 10 minutes in SDS Sample buffer and reducing agent, resolved on SDS-Page and transferred using standard protocols. Cell lysates are prepared similarly. Protein concentrations were determined using BioRad Protein Assay Dye Reagent following manufacturer's instructions."}, "[3]": {"test_system": "DLD-1 cells", "assay": "MTT viability assay, DLD-1 cells", "type": "cell-based, human", "conditions": "for viability after bortezomib pre-treatment alone: doses that sensitize to BEZ235", "protocol": "(§6) Cell culture: Parental DLD-1 and HCT-116 cell lines (ATCC) and their PI3K wildtype derivatives (DLD-1 WT and HCT116 WT) (38) that were obtained from Dr. Bert Vogelstein's laboratory were maintained using DMEM with 10% FBS. All experiments were done under low serum (2.5% FBS) conditions (38). MTT assay: Cells were grown in sterile 25 cm^2 flasks to 80% confluency, trypsinized, resuspended in 100 mL DMEM with 2.5% FBS and seeded in 96-well plates in equal numbers. After 24 hours, cells were treated with compounds diluted in DMEM with 2.5% FBS as indicated for 1, 2 or 3 days. MTT assay was performed by replacing compound containing medium with fresh DMEM with 2.5% FBS and 10 mg/ml MTT reagent (Thiazoyl Blue tetrazolium Bromide, Fisher Scientific) in PBS at a ratio of 5:1 (120 μl/well; 96-well plates). Cells are incubated at 37° C. for 3 hours, then the medium is removed and cells are incubated in MTT solvent (4 mM HCl, 0.1% NP40 in isopropanol) on a shaker. The amount of MTT formazan in the resulting solution is spectrophotometrically measured at […] (and a reference filter of 620 nM). Adjusted absorbance value for each well is calculated using the following formula: (OD590SAMPLE-OD590BLANK)−(OD620SAMPLE-OD620BLANK). Each experiment is done in quadruple and relative viability is expressed as fold change in adjusted absorbance compared to untreated and DMSO treated controls in each plate."}, "[4]": {"test_system": "HCT116 cells", "assay": "MTT viability assay, HCT116 cells", "type": "cell-based, human", "protocol": "as §6"}, "[5]": {"test_system": "ras^G12V pten^RNAi animals", "assay": "Dissemination after compound feeding, ras^G12V pten^RNAi double", "type": "in vivo, Drosophila", "conditions": "single agent", "protocol": "as §1, §2, §3, §4"}, "[6]": {"test_system": "ras^G12V p53^RNAi pten^RNAi apc^RNAi animals (adult hindgut)", "assay": "Dissemination (distant migration) after compound feeding, four-hit model", "type": "in vivo, Drosophila", "conditions": "for dissemination in combination with bortezomib: fed together with low non-toxic bortezomib (1 μM); for distant migration (dissemination into the abdominal cavity): four-hit model ras^G12V p53^RNAi pten^RNAi apc^RNAi, compounds fed for one week, single agent", "protocol": "as §1, §5\nCompound Feeding: Compounds used in this study were (stock concentrations and sources in parentheses) AZD6244 (200 mM, Selleck Chemicals), SL327 (200 mM, Tocris), GW5074 (100 mM, Tocris), Sorafenib (200 mM, LC Labs), LY294002 (200 mM, LC Labs), Rapamycin (200 mM, LC Labs), BEZ235 (20 mM, LC Labs), Dasatinib (200 mM, LC Labs), SP600125 (200 mM, LC Labs), Bortezomib (200 mM, LC Labs), Cisplatin (200 mM, Sigma), LBH589 (200 mM, LC Labs), Wortmannin (200 mM, LC Labs), PI-103-HCl (100 mM, Tocris), Everolimus (100 mM, LC Labs) and Enzastaurin (50 mM, LC Labs).\nImaging and Scoring: Fluorescence images were taken using a Leica TCS SPE confocal microscope and processed using the Leica LAS-AF software. Scoring and imaging of SA-β-gal staining was performed using an Olympus BX41 microscope and a Nikon DS-Ri1 camera. Distant migration was imaged and scored using a Leica MZ16F dissecting scope with a GFP filter under 10× magnification.\nStatistical Analysis: Statistical significance for the distant migration assay was calculated using Fisher's exact test as this test allows the analysis of contingency tables where sample sizes are relatively small. Use of a 4×2 contingency table allowed pairwise comparisons of the distant migration phenotype, which has four phenotypic categories, between different genotypes and/or treatment conditions. Each experiment was performed in duplicate (n=25-30 for each replicate) and multiple times. Error bars indicate standard error of the mean.\nGiven the low success rate of drug approvals for colorectal cancer (3) the study herein asked whether differences in genetic complexity influence a tumor model's response to drugs. Sixteen compounds that target key cancer relevant pathways and cellular processes were selected (FIG. 11); many of these compounds are currently in clinical trials including for colorectal cancer (25-27). Commencing the day of transgene induction, animals were fed compounds for one week and then scored for issemination into the abdominal cavity. Final compound concentrations in the media ranged from 1 μM-1 mM, corresponding to approximately 10-200 ng/day/animal based on adult feeding rates (FIG. 11)."}, "[7]": {"test_system": "ras^G12V animals (adult hindgut)", "assay": "Dissemination (distant migration) into the abdominal cavity after compound feeding, ras^G12V model", "type": "in vivo, Drosophila", "conditions": "compounds fed for one week, single agent", "protocol": "as §1, §2, §3, §4"}, "[8]": {"test_system": "ras^G12V p53^RNAi pten^RNAi apc^RNAi animals", "conditions": "Drosophila, in vivo, 7 days", "method": "Targets, feeding doses and toxicity of compounds. a, List of compounds used for feeding experiments along with their targets, mechanisms of actions and concentrations used in the food. Estimated amount ingested was calculated based on our observations that adult females ingest approximately 0.2 μl of food per day (not shown). Estimated amount of ingested compound was also converted into mg/kg body weight/day using 1.1 mg as the average weight of an adult female. b, Survival curves of ras^G12V p53^RNAi pten^RNAi apc^RNAi animals fed the indicated compounds."}, "[9]": {"test_system": "PI3K pathway", "assay": "Western blot of PI3K pathway activation in DLD-1 cells", "type": "cell-based, human", "conditions": "DLD-1 cells treated with bortezomib", "quoted_text": "Western Blot Analysis: Primary antibodies used were rabbit anti-Drosophila phospho-AKT ([MUT]) (1:1000, Cell Signaling), rabbit anti-pan-AKT (1:1000, Cell Signaling), rabbit anti-phospho-4EBP (T37/46) (1:1000, Cell Signaling), rabbit anti-human phospho-AKT (Ser473) (1:1000, Cell Signaling), mouse anti-α-actin (1:1000, Cell Signaling) and mouse anti-Syntaxin (1:1000, DSHB). HRP-conjugated anti-mouse and anti-rabbit antibodies were used as secondary antibodies (1:5000, Cell Signaling). For signal detection, Immobilon Chemiluminescent HRP Substrate (Millipore) was used. […] All experiments were done under low serum (2.5% FBS) conditions (38). […] Lysates were boiled for 10 minutes in SDS Sample buffer and reducing agent, resolved on SDS-Page and transferred using standard protocols. Cell lysates are prepared similarly. Protein concentrations were determined using BioRad Protein Assay Dye Reagent following manufacturer's instructions."}}, "note": "“Also recorded” adds a separate entry of the source."}
{"smiles": "Cn1c(=O)n(-c2ccc(C(C)(C)C#N)cc2)c2c3cc(-c4cnc5ccccc5c4)ccc3ncc21", "note": "[BEZ235]", "values": [{"measurement": "dissemination, response to BEZ235", "setting": "[1]", "value": "rendered the animals sensitive to BEZ235"}, {"measurement": "p-4EBP levels", "setting": "[2]; combined with bortezomib", "value": "reduced p-4EBP back to baseline levels"}, {"measurement": "sensitivity to BEZ235 after pretreatment with bortezomib", "setting": "[3]; DLD-1 cells, bortezomib pretreatment for 24 hours", "value": "Increased sensitivity; also recorded: rendered DLD-1 cells sensitive to BEZ235 treatment; also recorded: sensitize the cells to BEZ235"}, {"measurement": "BEZ235 dose response, parental versus PI3K wildtype line", "setting": "[3]; DLD-1 parental (Ras and PI3K active) vs DLD-1-WT", "value": "more resistant to BEZ235 than the derivative line DLD-1-WT"}, {"measurement": "sensitivity to BEZ235 after pretreatment with bortezomib", "setting": "[4]; HCT116 cells, bortezomib pretreatment for 24 hours", "value": "sensitize the cells to BEZ235"}, {"measurement": "BEZ235 dose response, parental versus PI3K wildtype line", "setting": "[4]; HCT116 parental (Ras and PI3K active) vs HCT116-WT", "value": "more resistant to BEZ235 than its PI3K pathway wildtype counterpart, HCT116-WT"}, {"measurement": "dissemination, response to BEZ235", "setting": "[5]", "value": "sufficient to direct resistance to BEZ235"}, {"measurement": "dissemination in combination with bortezomib", "setting": "[6]; four-hit model", "value": "synergized"}, {"measurement": "dissemination after sequential treatment, bortezomib followed by BEZ235", "setting": "[6]; four-hit model, sequential feeding", "value": "effective; also recorded: much more effective than concurrent feeding"}]}
{"smiles": "Cc1[nH]c2ccccc2c1CCNCc1ccc(/C=C/C(=O)NO)cc1", "note": "[LBH589]", "values": [{"measurement": "distant migration (dissemination into the abdominal cavity)", "setting": "[6]", "value": "not against ras^G12V p53^RNAi pten^RNAi apc^RNAi at non-toxic doses"}, {"measurement": "distant migration (dissemination into the abdominal cavity)", "setting": "[7]", "value": "effective against ras^G12V"}]}
{"smiles": "O=c1cc(N2CCOCC2)oc2c(-c3ccccc3)cccc12", "note": "[LY294002, 2-(4-morpholinyl)-8-phenyl-4H-1-benzopyran-4-one]", "values": [{"measurement": "p-4EBP levels", "setting": "[2]; combined with bortezomib", "value": "reduced p-4EBP back to baseline levels"}, {"measurement": "dissemination in combination with bortezomib", "setting": "[6]; four-hit model", "value": "synergized"}]}
{"smiles": "Oc1cccc(-c2nc(N3CCOCC3)c3oc4ncccc4c3n2)c1", "note": "[P1103]", "values": [{"measurement": "dissemination in combination with bortezomib", "setting": "[6]; four-hit model", "value": "synergized"}]}
{"smiles": "CC(C)C[C@H](NC(=O)[C@H](Cc1ccccc1)NC(=O)c1cnccn1)B(O)O", "note": "[bortezomib]", "values": [{"measurement": "animals killed at doses showing efficacy", "setting": "[8]", "value": "more than 70 % of the animals"}, {"measurement": "PI3K and TORC1 activity", "setting": "[2]; low doses of bortezomib", "value": "directed upregulation of PI3K and TORC1 activity"}, {"measurement": "p-4EBP levels", "setting": "[2]; bortezomib treatment alone", "value": "increase in p-4EBP levels"}, {"measurement": "viability after bortezomib pre-treatment alone", "setting": "[3]; DLD-1 cells", "value": "did not affect survival"}, {"measurement": "viability after bortezomib pre-treatment alone", "setting": "[3]; DLD-1 cells, listed as Bortezomib", "value": "does not affect the viability; also recorded: has no effect on viability"}, {"measurement": "viability after bortezomib pre-treatment alone", "setting": "[4]; HCT116 cells, doses that sensitize to BEZ235", "value": "does not affect the viability; also recorded: has no effect on viability"}, {"measurement": "PI3K pathway activation status", "setting": "[9]", "value": "activated the PI3K pathway"}, {"measurement": "distant migration (dissemination into the abdominal cavity)", "setting": "[6]", "value": "only showed efficacy at doses that otherwise killed more than 70% of the animals"}]}
